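Cultured in 96-well plates, cells were exposed to test compound for 48 hours across five concentrations. TGI marks complete inhibition of growth.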
Columns and labels:
Test in all cases: growth of human tumour cells (NCI), 48 h
T-47D breast = system: T-47D breast
SR leukemia = system: SR leukemia
SN12C renal = system: SN12C renal
DU-145 prostate = system: DU-145 prostate
IGROV1 ovarian = system: IGROV1 ovarian
MDA-MB-231 breast = system: MDA-MB-231 breast
NCI-H460 lung = system: NCI-H460 lung
SK-MEL-2 melanoma = system: SK-MEL-2 melanoma
LOX IMVI melanoma = system: LOX IMVI melanoma
U251 CNS = system: U251 CNS
ACHN renal = system: ACHN renal
HOP-92 NSCLC = system: HOP-92 NSCLC
OVCAR-4 ovarian = system: OVCAR-4 ovarian
NCI/ADR-RES ovarian = system: NCI/ADR-RES ovarian
RPMI-8226 leukemia = system: RPMI-8226 leukemia
M14 melanoma = system: M14 melanoma
OVCAR-3 ovarian = system: OVCAR-3 ovarian
NCI-H23 lung = system: NCI-H23 lung
EKVX NSCLC = system: EKVX NSCLC
BT-549 breast = system: BT-549 breast
K-562 leukemia = system: K-562 leukemia
SF-295 CNS = system: SF-295 CNS
MALME-3M melanoma = system: MALME-3M melanoma
HCT-15 colon = system: HCT-15 colon
CAKI-1 renal = system: CAKI-1 renal
OVCAR-8 ovarian = system: OVCAR-8 ovarian
MOLT-4 leukemia = system: MOLT-4 leukemia
SK-MEL-5 melanoma = system: SK-MEL-5 melanoma
TK-10 renal = system: TK-10 renal
PC-3 prostate = system: PC-3 prostate
HCT-116 colon = system: HCT-116 colon
NCI-H226 lung = system: NCI-H226 lung
HL-60(TB) leukemia = system: HL-60(TB) leukemia
SNB-19 CNS = system: SNB-19 CNS
NCI-H522 lung = system: NCI-H522 lung
SF-539 CNS = system: SF-539 CNS
UO-31 renal = system: UO-31 renal
MCF7 breast = system: MCF7 breast
OVCAR-5 ovarian = system: OVCAR-5 ovarian
COLO 205 colon = system: COLO 205 colon
SK-MEL-28 melanoma = system: SK-MEL-28 melanoma
KM12 colon = system: KM12 colon
786-0 renal = system: 786-0 renal
SK-OV-3 ovarian = system: SK-OV-3 ovarian
HOP-62 NSCLC = system: HOP-62 NSCLC
SW-620 colon = system: SW-620 colon
SF-268 CNS = system: SF-268 CNS
A549 NSCLC = system: A549 NSCLC
UACC-62 melanoma = system: UACC-62 melanoma
HS 578T breast = system: HS 578T breast
A498 renal = system: A498 renal
MDA-MB-435 = system: MDA-MB-435
UACC-257 melanoma = system: UACC-257 melanoma
SNB-75 CNS = system: SNB-75 CNS
MDA-N = system: MDA-N
CCRF-CEM leukemia = system: CCRF-CEM leukemia
RXF 393 renal = system: RXF 393 renal
HT29 colon = system: HT29 colon
HCC-2998 colon = system: HCC-2998 colon

`Cc1c(C(=O)O)nc(/C=C/C(=O)O)[nH]c1=O` showed a TGI (T-47D breast) greater than 100 µM, a TGI (SR leukemia) greater than 100 µM and a TGI (SN12C renal) greater than 100 µM. For the same compound, the TGI (DU-145 prostate) was greater than 100 µM, the TGI (IGROV1 ovarian) was greater than 100 µM and the TGI (MDA-MB-231 breast) was greater than 100 µM. The TGI (NCI-H460 lung) was greater than 100 µM, the TGI (SK-MEL-2 melanoma) was greater than 100 µM and the TGI (LOX IMVI melanoma) was greater than 100 µM. The TGI (U251 CNS) was greater than 100 µM, the TGI (ACHN renal) was greater than 100 µM and the TGI (HOP-92 NSCLC) was greater than 100 µM. The TGI (OVCAR-4 ovarian) was greater than 100 µM, the TGI (NCI/ADR-RES ovarian) was greater than 100 µM and the TGI (RPMI-8226 leukemia) was greater than 100 µM. It also gave a TGI (M14 melanoma) greater than 100 µM, a TGI (OVCAR-3 ovarian) greater than 100 µM and a TGI (NCI-H23 lung) greater than 100 µM. For the same compound, the TGI (EKVX NSCLC) was greater than 100 µM, the TGI (BT-549 breast) was greater than 100 µM and the TGI (K-562 leukemia) was greater than 100 µM. The TGI (SF-295 CNS) was greater than 100 µM, the TGI (MALME-3M melanoma) was greater than 100 µM and the TGI (HCT-15 colon) was greater than 100 µM. The TGI (CAKI-1 renal) was greater than 100 µM, the TGI (OVCAR-8 ovarian) was greater than 100 µM and the TGI (MOLT-4 leukemia) was greater than 100 µM. For the same compound, the TGI (SK-MEL-5 melanoma) was greater than 100 µM, the TGI (TK-10 renal) was greater than 100 µM and the TGI (PC-3 prostate) was greater than 100 µM. For the same compound, the TGI (HCT-116 colon) was greater than 100 µM, the TGI (NCI-H226 lung) was greater than 100 µM and the TGI (HL-60(TB) leukemia) was greater than 100 µM. The TGI (SNB-19 CNS) was greater than 100 µM, the TGI (NCI-H522 lung) was greater than 100 µM and the TGI (SF-539 CNS) was greater than 100 µM. The TGI (UO-31 renal) was greater than 100 µM, the TGI (MCF7 breast) was greater than 100 µM and the TGI (OVCAR-5 ovarian) was greater than 100 µM. For the same compound, the TGI (COLO 205 colon) was greater than 100 µM, the TGI (SK-MEL-28 melanoma) was greater than 100 µM and the TGI (KM12 colon) was greater than 100 µM. The TGI (786-0 renal) was greater than 100 µM, the TGI (SK-OV-3 ovarian) was greater than 100 µM and the TGI (HOP-62 NSCLC) was greater than 100 µM. It also gave a TGI (SW-620 colon) greater than 100 µM, a TGI (SF-268 CNS) greater than 100 µM and a TGI (A549 NSCLC) greater than 100 µM. The TGI (UACC-62 melanoma) was greater than 100 µM, the TGI (HS 578T breast) was greater than 100 µM and the TGI (A498 renal) was greater than 100 µM. The TGI (MDA-MB-435) was greater than 100 µM, the TGI (UACC-257 melanoma) was greater than 100 µM and the TGI (SNB-75 CNS) was greater than 100 µM. The TGI (MDA-N) was greater than 100 µM, the TGI (CCRF-CEM leukemia) was greater than 100 µM and the TGI (RXF 393 renal) was greater than 100 µM. The TGI (HT29 colon) was greater than 100 µM.
`COP(=O)(OC)C(C)(C)NC(=O)NC(F)(F)F` was tested, and the TGI (T-47D breast) was greater than 100 µM, the TGI (SR leukemia) was greater than 100 µM and the TGI (SN12C renal) was greater than 100 µM. It also gave a TGI (DU-145 prostate) greater than 100 µM, a TGI (IGROV1 ovarian) greater than 100 µM and a TGI (MDA-MB-231 breast) greater than 100 µM. The TGI (NCI-H460 lung) was greater than 100 µM, the TGI (SK-MEL-2 melanoma) was greater than 100 µM and the TGI (LOX IMVI melanoma) was greater than 100 µM. The TGI (U251 CNS) was greater than 100 µM, the TGI (ACHN renal) was greater than 100 µM and the TGI (OVCAR-4 ovarian) was greater than 100 µM. For the same compound, the TGI (NCI/ADR-RES ovarian) was greater than 100 µM, the TGI (RPMI-8226 leukemia) was greater than 100 µM and the TGI (M14 melanoma) was greater than 100 µM. The TGI (OVCAR-3 ovarian) was greater than 100 µM, the TGI (NCI-H23 lung) was greater than 100 µM and the TGI (EKVX NSCLC) was greater than 100 µM. For the same compound, the TGI (BT-549 breast) was greater than 100 µM, the TGI (K-562 leukemia) was greater than 100 µM and the TGI (SF-295 CNS) was greater than 100 µM. The TGI (MALME-3M melanoma) was greater than 100 µM, the TGI (HCT-15 colon) was greater than 100 µM and the TGI (CAKI-1 renal) was 16.6 µM. It also gave a TGI (OVCAR-8 ovarian) greater than 100 µM, a TGI (MOLT-4 leukemia) greater than 100 µM and a TGI (SK-MEL-5 melanoma) greater than 100 µM. For the same compound, the TGI (TK-10 renal) was greater than 100 µM, the TGI (PC-3 prostate) was greater than 100 µM and the TGI (HCT-116 colon) was greater than 100 µM. For the same compound, the TGI (NCI-H226 lung) was 91.1 µM, the TGI (HL-60(TB) leukemia) was greater than 100 µM and the TGI (SNB-19 CNS) was greater than 100 µM. For the same compound, the TGI (SF-539 CNS) was greater than 100 µM, the TGI (UO-31 renal) was greater than 100 µM and the TGI (MCF7 breast) was greater than 100 µM. For the same compound, the TGI (HCC-2998 colon) was greater than 100 µM, the TGI (OVCAR-5 ovarian) was greater than 100 µM and the TGI (COLO 205 colon) was greater than 100 µM. The TGI (SK-MEL-28 melanoma) was greater than 100 µM, the TGI (KM12 colon) was greater than 100 µM and the TGI (786-0 renal) was greater than 100 µM. For the same compound, the TGI (SK-OV-3 ovarian) was greater than 100 µM, the TGI (HOP-62 NSCLC) was greater than 100 µM and the TGI (SW-620 colon) was greater than 100 µM. It also gave a TGI (SF-268 CNS) greater than 100 µM, a TGI (A549 NSCLC) greater than 100 µM and a TGI (UACC-62 melanoma) greater than 100 µM. It also gave a TGI (HS 578T breast) greater than 100 µM, a TGI (MDA-MB-435) greater than 100 µM and a TGI (UACC-257 melanoma) greater than 100 µM. It also gave a TGI (SNB-75 CNS) greater than 100 µM, a TGI (MDA-N) greater than 100 µM and a TGI (CCRF-CEM leukemia) greater than 100 µM. It also gave a TGI (RXF 393 renal) greater than 100 µM and a TGI (HT29 colon) greater than 100 µM.
